Measurements published in patent publication US20180002400A1, “SHORT PEPTIDE-BASED THERAPEUTIC AGENT AND MEDICINAL COMPOSITION INCLUDING THE SAME FOR INHIBITING ACTIVITIES OF CANCER CELLS” (NATIONAL CHENG KUNG UNIVERSITY, priority 2015, published 2018).

B1: pPTX3/C: recombinant protein (SEQ ID NO:4) expressed and purified from prokaryotic expression system (E. coli); control group (protein)
chain: ETAILFPMRSKKIFGSVHPVRPMRLESFSACIWVKATDVLNKTILFSYGTKRNPYEIQLYLSYQSIVFVVGGEENKLVAEAMVSLGRWTHLCGTWNSEEGLTSLWVNGELAATTVEMATGHIVPEGGILQIGQEKNGCCVGGGFDETLAFSGRLTGFNIWDSVLSNEEIRETGGAESCHIRGNIVGWGVTEIQPHGGAQYVS
modifications: The 180th amino acid to 381th amino acid of Human sapiens PTX3 (pPTX3/C)
notes: control group

Columns and labels:
Format in all cases: cell-based, human
[1] = tested on: lung cancer A549 cell; test: Cancer cell migration (Boyden chamber) induced by euPTX3; conditions: A549 only co-cultured with euPTX3 2.5 μg/mL; FIG. 2C left panel
Method: (§1) The cell density 5×10^4 cells/well of the breast cancer MB231 cell, the lung cancer A549 cell and the nasopharyngeal cancer HONE1 cell were seeded into each upper insert of 24-well plate (containing 8-μm pore insert per well; BD Biosciences) for 19 hours, and each lower well was added with the short peptides RI37, GI40 and KT44 (10 μg/mL or 225 nM of the short peptide) and the polypeptide euPTX3 (2.5 μg/mL) of Example 1, for evaluating the influence of migration of the cancer cell of Example 2 using several short peptides of Example 1.
(§2) The cell density 5×10^4 cells/well of the breast cancer MB231 cell, the lung cancer A549 cell and the nasopharyngeal cancer HONE1 cell were seeded into each upper insert of Boyden chamber for 3 hours of cultivation.
(§3) And then, the medium in each upper insert was replaced by serum-free medium, and the medium in each lower well was added with the short peptides RI37, GI40, KT44 and the polypeptide euPTX3 of Example 1. The cells inside each upper insert were wiped with cotton swabs and removed after 16 hours of cultivation. Remaining cells that had migrated to the bottom of the insert membrane were stained by 4′,6-diamidino-2-phenylindole (DAPI; Invitrogen) and calculated under fluorescence microscopy with 200-fold magnification.

[2] = tested on: nasopharyngeal cancer HONE1 cell; test: as above; conditions: HONE1 only co-cultured with euPTX3 2.5 μg/mL; FIG. 3C left panel
Method: as §1, §2, §3

[3] = tested on: drug-resistant breast cancer MB231R (MBR) cells; test: as above
Method: [The procedure below names another cell line; the source lists this cell line under the same test.] as §1, §2, §3

[4] = tested on: drug-resistant breast cancer MB231R (MBR) cells; test: Cancer cell invasion (matrigel-coated insert) induced by euPTX3
[5] = tested on: lung cancer A549 cell; test: as above; conditions: A549 only co-cultured with euPTX3 2.5 μg/mL; FIG. 2C right panel
Method: (§4) The cell density 5×10^4 cells/well of the breast cancer MB231 cell, the lung cancer A549 cell and the nasopharyngeal cancer HONE1 cell were seeded into each upper insert of 24-well plate (containing 8-μm pore insert per well; BD Biosciences), the upper insert and the lower well were separated by the polyethelene terephthalate membrane coated with matrigel (purchased from BD Bioscience), and cultured for 3 hours.
as §3, with “Next,” for “And then,”, “euPTX3 and pPTX3/C” for “euPTX3”, “4′, 6-diamidino-2-phenylindole” for “4′,6-diamidino-2-phenylindole”

[6] = tested on: nasopharyngeal cancer HONE1 cell; test: as above; conditions: HONE1 only co-cultured with euPTX3 2.5 μg/mL; FIG. 3C right panel
Method: as §4
as §3, with “Next,” for “And then,”, “euPTX3 and pPTX3/C” for “euPTX3”, “4′, 6-diamidino-2-phenylindole” for “4′,6-diamidino-2-phenylindole”

[7] = tested on: lung cancer A549 cell; test: Drug resistance (CDDP, 5-FU) induced by euPTX3, MTT assay; conditions: A549 only co-cultured with euPTX3 2.5 μg/mL vs without euPTX3; FIG. 2B
Method: (§5) The cell density 1×10^4 cells/well of the breast cancer MB231 cell, the lung cancer A549 cell and the nasopharyngeal cancer HONE1 cell were co-cultured with the short peptides RI37, GI40 and KT44 (10 μg/mL or 225 nM of the short peptide) and the polypeptide euPTX3 (2.5 μg/mL) of Example 1. After 1 week of cultivation, those cancer cells were added with 40 μM of CDDP or 100 μM of 5-FU respectively and cultured for 48 hours. Based on the cell viability of the cells only co-cultured with the polypeptide euPTX3 (2.5 μg/mL) as 100%, the influence of drug resistance of the cancer cells of Example 2 using the short peptides of Example 1 could be determined according to the aforementioned MTT assay.

[8] = tested on: breast cancer MB231 cell; test: as above; conditions: MB231 only co-cultured with euPTX3 2.5 μg/mL vs without euPTX3; FIG. 1D
Method: as §5

[9] = tested on: nasopharyngeal cancer HONE1 cell; test: as above; conditions: HONE1 only co-cultured with euPTX3 2.5 μg/mL vs without euPTX3; FIG. 3B
Method: as §5

Molecule | migrated cell numbers [1] | migrated cell numbers [2] | migrated cell numbers ([3]; breast cancer cells only co-cultured with euPTX3 2.5 μg/mL, FIG. 1E, 5B left panels) | invasive cell numbers ([4]; breast cancer cells only co-cultured with euPTX3 2.5 μg/mL, FIG. 1E, 5B right panels) | invasive cell numbers [5] | invasive cell numbers [6] | drug resistance to CDDP or 5-FU (cell viability) [7] | drug resistance to CDDP or 5-FU (cell viability) [8] | drug resistance to CDDP or 5-FU (cell viability) [9] | migrated cell numbers induced by the polypeptide euPTX3 ([3]; MB231R (MBR), identical molecular number: euPTX3 2.5 μg/mL, RI37 3.7 μg/mL, GI40 4 μg/mL, pPTX3/C 10 μg/mL, FIG. 5B left panel) | invasive cell numbers induced by the polypeptide euPTX3 ([4]; MB231R (MBR), identical molecular number: euPTX3 2.5 μg/mL, RI37 3.7 μg/mL, GI40 4 μg/mL, pPTX3/C 10 μg/mL, FIG. 5B right panel)
euPTX3: commercially available PTX3 product (R&D system Inc.), recombinant protein purified from mouse myeloma cells (NS0) | increase migrated cell numbers | increase migrated cell numbers | increase migrated cell numbers | increase invasive cell numbers | increase invasive cell numbers | increase invasive cell numbers | increase drug resistance to CDDP or 5-FU | increase drug resistance to CDDP or 5-FU | increase drug resistance to CDDP or 5-FU | – | –
B1 | – | – | – | – | – | – | – | – | – | can inhibit migrated cell numbers | can inhibit invasive cell numbers
